# Earlier results as cited in patent publication US7541359B2, “N-heteroarylpiperazinyl ureas as modulators of fatty acid amide hydrolase” (Janssen Pharmaceutica N.V., priority 2005, dated 2009).
# What was measured:
# [1] = tested on: CREAE mice; conditions: model of multiple sclerosis; cited from earlier work
# [2] = tested on: rats; conditions: cited from earlier work
# [3] = tested on: rats; conditions: cited from earlier work; remark: listed apart in the source
# [4] = target: T1, FAAH (Homo sapiens, UniProt O00519); set-up: T84 frozen pellets (contents of 1-4×15 cm culture dishes) were homogenized in 300 mL of FAAH assay buffer; endogenous in cells; host or cells: T84 cells (homogenate); conditions: cited from earlier work
# T1 sequence (O00519 1-579): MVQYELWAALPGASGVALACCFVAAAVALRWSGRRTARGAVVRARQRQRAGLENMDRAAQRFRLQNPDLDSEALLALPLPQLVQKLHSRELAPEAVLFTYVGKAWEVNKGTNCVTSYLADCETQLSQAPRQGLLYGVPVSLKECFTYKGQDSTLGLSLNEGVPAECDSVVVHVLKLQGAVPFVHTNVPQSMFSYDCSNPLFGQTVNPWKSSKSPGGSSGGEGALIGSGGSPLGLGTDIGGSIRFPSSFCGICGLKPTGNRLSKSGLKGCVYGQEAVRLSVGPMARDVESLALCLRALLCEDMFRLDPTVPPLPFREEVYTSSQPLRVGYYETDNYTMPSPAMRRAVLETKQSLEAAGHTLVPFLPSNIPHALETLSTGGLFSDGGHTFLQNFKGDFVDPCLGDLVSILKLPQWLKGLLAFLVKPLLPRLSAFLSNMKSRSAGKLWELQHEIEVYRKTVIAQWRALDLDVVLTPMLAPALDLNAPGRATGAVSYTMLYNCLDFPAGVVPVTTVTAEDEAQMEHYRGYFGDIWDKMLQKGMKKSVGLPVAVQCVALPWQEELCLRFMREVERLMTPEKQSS
# [5] = tested on: rats; conditions: cited from earlier work; remark: listed apart in the source
# [6] = tested on: rats; conditions: cited from earlier work; remark: listed apart in the source
# [7] = tested on: rats; conditions: rat; cited from earlier work
# [8] = tested on: rats; conditions: cited from earlier work; remark: listed apart in the source
structure (smiles),measurement,setting,value
CCCCCCCCCCCCCCCCS(=O)(=O)F [AM374],reduction of spasticity,[1],significantly reduce spasticity
Cc1nc(-c2ccccc2)c(-c2ccccc2)n1CCCCCCNC(=O)Oc1ccccc1F [BMS-1],analgesic effect in the Chung spinal nerve ligation model of neuropathic pain,[2],analgesic effect
same,analgesic effect in the Hargraves test of acute thermal nociception,[3],analgesic effect
O=C(CCCCCCc1ccccc1)c1ncc(-c2ccccn2)o1 [OL-135],inhibition of FAAH,[4],potent inhibitor
same,analgesic efficacy/activity in the hot plate test,[5],analgesic activity
same,analgesic activity in the tail emersion test of thermal nociception,[6],analgesic activity
NC(=O)c1cccc(-c2cccc(OC(=O)NC3CCCCC3)c2)c1 [URB-597],analgesic efficacy/activity in the hot plate test,[5],analgesic efficacy
same,analgesic efficacy in the formalin test,[7],analgesic efficacy
same,efficacy in the zero plus maze model of anxiety,[8],efficacy
